Values quoted from earlier work, collected in patent US20230018472A1, “RHINENCHYSIS COMPOSITION CONTAINING OLOPATADINE” (TOKO YAKUHIN KOGYO CO., LTD., priority 2019, published 2023).
Read-outs that look alike come from different tables or passages of the source.

Solubility of olopatadine (around neutral pH): very low | Solubility of olopatadine (concentration 0.2% or more as free base, solution having pH of 5 or higher): not soluble
SMILES: CN(C)CC/C=C1/c2ccccc2COc2ccc(CC(=O)O)cc21 [olopatadine]
